For this assay, the system named is macrophage inhibitory cytokine-1 (MIC-1) serum levels. Put plainly: Serum MIC-1 (GDF-15) ELISA, pharmacodynamic biomarker. The class given is in vivo, human. Here is the method:
To investigate biomarkers that could be potentially linked to the milademetan mechanism of action, blood, bone marrow, and serum were collected. TP53 tumor genotyping was done using bone marrow and blood samples collected before milademetan administration and at the end of treatment. TP53 genomic status was determined using a targeted next-generation sequencing following the reference human genome sequence (hg19). QIAamp® DSP FFPE Kit (Qiagen, Hilden, Germany) was used to extract DNA. Quantified DNA samples were processed by polymerase chain reaction (PCR) amplification using custom primer sets of all 11 TP53 exons. Libraries were prepared from purified PCR pools using Illumina TruSeq kits™ (Illumina, San Diego, CA, USA) and analyzed using the MiSeq platform™ (Illumina). Raw reads were aligned against hg19, and data sets were analyzed using a program developed in-house for genomic aberrations (i.e., mutations, deletions, and insertions) detection. Quantikine® ELISA Human GDF-15 immunoassay (R&D Systems, Inc., Minneapolis, MN, USA), employing the quantitative sandwich enzyme immunoassay technique, was used to determine serum MIC-1, also known as growth and differentiation factor-15 (GDF-15). […] In addition to descriptive statistics, the geometric mean and geometric coefficient of variation were used to describe the PK parameters. All analyses were conducted using SAS® software (version 9.4; SAS Institute Inc., Cary, NC, USA). The time courses of mean plasma milademetan concentrations on days 1 and 14 of cycle 1 (linear scale) in the QD 14/28-day schedule were used for pharmacokinetic analysis. The best response was measured as CR, CRh, CRi, or PR. For efficacy analysis, a waterfall plot of the best percent change from baseline blast count in bone marrow aspirate on the QD 14/28-day schedule was drawn to assess the blast count reduction. In addition, line plots of individual serum MIC-1 levels were drawn in the QD 14/28-day schedule for the pharmacodynamics analysis set.
A general note: ELISA stands for enzyme-linked immunosorbent assay.

SMILES strings stand for the structures.

Consider `CC1(C)CCC2(CC1)N[C@@H](C(=O)N[C@@H]1CC[C@@H](C(N)=O)OC1)[C@H](c1ccnc(Cl)c1F)[C@]21C(=O)Nc2cc(Cl)ccc21` [milademetan], for which, under “all cohorts, after administration”, the “Mean serum MIC-1 levels vs baseline” value is on record as “increased from baseline in all cohorts”. Moreover, the “Peak MIC-1 levels, 120- and 160-mg cohorts vs 90-mg cohort” value (in vivo) is given as “tended to be higher”. In addition, where the note is “most patients”, the “Time of peak serum MIC-1 level” value is “day 8 or 14 of cycle 1”.
